The record followed here is patent publication US10676514B2, “CDCA1-derived peptide and vaccine containing same” (ONCOTHERAPY SCIENCE, INC., priority 2014, dated 2020).

“Also recorded” adds a separate entry of the source.

This test deals with COS7 cells transfected with CDCA1 and HLA-A*1101. Kind of test: Specific CTL activity against target cells expressing CDCA1 and HLA-A*1101. It counts as cell-based, African green monkey. The settings on record: listed as CDCA1-A11-9-219. From the text: A cDNA encoding the open-reading frame of a target gene or HLA-A*1101 was amplified by PCR. The PCR-amplified product was cloned into an expression vector. Either or both of the target gene-expressing vector and the HLA-A*1101-expressing vector were transfected into COS7, which is a cell line negative for the target gene and HLA, using Lipofectamine 2000 (Invitrogen) following the manufacturer's recommended protocol. Two days after transfection, the transfected cells were harvested using versene (Invitrogen), and used as the target cell for CTL activity assay (5×10^4 cells/well).
The CTL clone established against CDCA-A11-9-219 (SEQ ID NO: 7) was investigated for its ability to recognize target cells expressing CDCA1 and the HLA-A*1101 molecule. COS7 cells transfected with both full-length CDCA1 and the HLA-A*1101 gene (a specific model of target cells expressing CDCA1 and the HLA-A*1101 gene) were prepared as the target cell. COS7 cells transfected with either full-length CDCA1 or HLA-A*1101 were prepared as the control.

Turning to “KTKRLNELK (a peptide derived from CDCA1) [SEQ ID NO: 7]”, under “COS7 cells transfected with both CDCA1 and HLA-A*1101”, the “specific CTL activity of CTL clone” value is listed as “specific CTL activity; also recorded: potent CTL activity”. Further, the “specific CTL activity of CTL clone against control cells” value (COS7 cells transfected with either full-length CDCA1 or HLA-A*1101) is “a significant specific CTL activity was not shown; also recorded: a significant specific CTL activity was not detected”.
